According to patent US9745318B2, “Fluorescent red emitting functionalizable calcium indicators” (PARIS SCIENCES ET LETTRES—QUARTIER LATIN, priority 2013, dated 2017):
Values joined by “and” are separate entries in the source; they are usually repeats but may differ in a detail not shown here. Identical values can stand only once. Like-named read-outs stand apart in the source and are kept apart here. Blank lines part the entries; values can stand above or below the compound they belong to.

Experiments:
[1] = Fluorimetric titration against Ca2+ (cuvette calibration, Hill fit); assay type: binding; conditions: for Kd: 100 mM KCl, 30 mM MOPS, pH 7.2, Hill fit
Procedure: All the solvents were of analytical grade. Chemicals were purchased from commercial sources. ^1H-NMR and ^13C-NMR were measured on a Bruker avance 111-300 MHz spectrometer with chemical shifts reported in ppm (TMS as internal standard). Mass spectra were measured on a Focus GC/DSQ II spectrometer (ThermoScientific) for IC and an API 3000 spectrometer (Applied Biosystems, PE Sciex) for ES. All pH measurements were made with a Mettler Toledo pH-Meter. Fluorescence spectra were recorded on a JASCO FP-8300 spectrofluorometer. Absorption spectra were determined on a VARIAN CARY 300 Bio UV-Visible spectrophotometer. All measurements were done at a set temperature of 25° C. The purity of the dyes were checked by RP-HPLC C-18, eluant: ACN 0.1% TFA/Water 0.1% TFA, method: 20/80 to 100/0 within 20 min then 100/0 for 10 min. detection at λAbs=254 nm. The apparent dissociation constant for calcium (Kd Ca^2+) was measured with a calcium calibration buffer kit from Invitrogen.
A fluorimetric titration of Ia-1 (5 μM) against Ca^2+ in a buffer containing (in mM) 100 KCl and 30 MOPS (pH 7.2) was performed.
A fluorimetric titration of Ia-1-Dextran-6000 conjugate against Ca^2+ in a buffer containing (in mM) 100 KCl and 30 MOPS (pH 7.2) was also conducted.
A fluorimetric titration of Ic-1 and Ic-2 against Ca^2+ in a buffer containing (in mM) 100 KCl and 30 MOPS (pH 7.2) was also conducted. […] The normalised fluorimetric titrations against Ca^2+ of Ia-1, Ic-1 and Ic-2 are represented in FIG. 13.

[2] = Determination of fluorescence quantum yield; assay type: physicochemical; conditions: rhodamine 101 as reference standard
Procedure: The quantum yields φ of Ia-1 were calculated from the slope of the integrated spectral emission (545 to 700 nm) of Ia-1 in the presence (2 mM) or absence (0 mM, 10 mM EGTA) of Ca^2+ vs. absorbance at 535 nm using rhodamine 101 (φ=1.0 in absolute ethanol) as a reference standard. A solvent correction was applied for the comparison of the fluorescence quantum yields of Ia-1 and rhodamine 101. The quantum yields φ were calculated using the following equation where φ is the quantum yield, s is the value of the observed slope and η is the refractive index of the solvent used.
[formula] • The calculations gave: φCalcium free=0.0089 • φCa2+=0.4541 II.4. Two-Photon Excitation of Compound Ia-1

[3] = Two-photon excitation, fluorescence intensity vs. excitation power; assay type: physicochemical
Procedure: Experiments of two-photon excitation of Ia-1 were conducted. Results are represented on FIG. 8. The power function fit to the data gives a power of 1.92±0.10—within one SD of 2.0, as expected for two-photon excitation evidencing that the measured fluorescence was indeed two-photon excited.

Purkinje cells = test: High-speed random access two-photon microscopy with climbing fiber stimulation in cerebellar slices; assay type: cell-based, mice; conditions: exponential fit, n=59 spines from 7 cells, 300 μM in pipette
Procedure: For high speed imaging experiments, acute 260 μm thick slices were obtained from the cerebellar vermis of P60 mice and superfused with extracellular saline medium.
Climbing fiber stimulation-evoked transient [Ca^2+] changes in Purkinje cell spines were recorded at high acquisition rate (>2 kHz) by two-photon random-access microscopy, a technique is based on the use of acousto-optic deflectors (AODs), which enable selective scanning of defined points. Purkinje cells were recorded in current-clamp mode, using 2-3MΩ patch pipettes containing 300 μM Ia-1. Recordings were obtained by use of a Multiclamp 700B (Molecular Devices). Following the dialysis of Ia-1, Purkinje cells in slices were imaged under a 25× Leica water immersion objective (HCX IRAPO L 25×/0.95). […] A multifunction card (NI-PCI-MIO 16 E-4) was used to pass all the triggers necessary to synchronize the imaging and the electrophysiology and to control the piezo-electric device that moves the objective in Z. Fluorescence photons were detected by cooled AsGaP photomultipliers (H7421-40, Hamamatsu) discriminated and counted on a fast digital card.
During stimulation of the climbing fiber, fluorescence traces were acquired from multiple spines (range: 4 to 14) at rates over 1 kHz (range 2.2 to 4.8 kHz) (FIGS. 11e and 11f).

[4] = in absolute ethanol; cited from earlier work
[5] = read-out: apparent dissociation constant for Ca2+

Kd ([1]; read-out: apparent dissociation constant (KD) for Ca2+): 258 nM
increase of fluorescence on binding [Ca2+] ([1]; cuvette calibration experiments): 50 fold
quantum yield φ, calcium free ([2]; 0 mM Ca2+, 10 mM EGTA): 0.0089
quantum yield φ, Ca2+ bound (maximum quantum yield) ([2]; 2 mM Ca2+): 0.4541 and 0.45
power of the power function fit (fluorescence intensity vs. excitation power) [3]: 1.92±0.10
Compound: [N-]=[N+]=NCCCCCCOc1cc(OCCOc2ccccc2N(CC(=O)O)CC(=O)O)c(N(CC(=O)O)CC(=O)O)cc1C1=c2cc3c4c(c2Oc2c1cc1c5c2CCCN5CCC1)CCC[N+]=4CCC3 [Ia-1]
rise time τ of Ca2+ transients (Purkinje cells): 1.30 ± 0.26 ms

Kd [1, 5]: 1700 nM
Compound: [N-]=[N+]=NCCCCCCOc1cc(OCCOc2ccc(Cl)cc2N(CC(=O)O)CC(=O)O)c(N(CC(=O)O)CC(=O)O)cc1C1=c2cc3c4c(c2Oc2c1cc1c5c2CCCN5CCC1)CCC[N+]=4CCC3 [Ic-1]

Kd [1, 5]: 320 nM
Compound: [N-]=[N+]=NCCCCCCOc1cc(OCCOc2cc(F)ccc2N(CC(=O)O)CC(=O)O)c(N(CC(=O)O)CC(=O)O)cc1C1=c2cc3c4c(c2Oc2c1cc1c5c2CCCN5CCC1)CCC[N+]=4CCC3 [Ic-2]

Compound: O=C(O)c1ccccc1C1=c2cc3c4c(c2Oc2c1cc1c5c2CCCN5CCC1)CCC[N+]=4CCC3.[Cl-] [rhodamine 101]
quantum yield φ of reference standard [4]: 1.0
